These are literature values, as cited in US20220409351A1, “ORAL APPLIANCE FOR DELIVERY OF AN ANTIMICROBIAL COMPOSITION” (Emanate Biomedical, Inc., priority 2019, published 2022).

Data set [1] has as its system oral pathogenic bacteria. The settings on record: against oral pathogenic bacteria.
The test system of data set [2] is oral pathogenic bacteria. The settings on record: at 10 minutes.

With `[H]/N=C(\N/C(=N/[H])NCCCCCCNC(=N)NC(=N)Nc1ccc(Cl)cc1)Nc1ccc(Cl)cc1` [Chlorhexidine, chlorhexidine], the MIC with oral pathogenic bacteria [1] is listed as 0.0125 % w/v. The MBC in the data set with oral pathogenic bacteria [2] is recorded as 0.5 % w/v.
